The values below come from patent publication US20250195521A1 (Revolution Medicines, Inc., priority 2020, published 2025).

Experiment [1] relates to PAN02 tumors (PTPN11 G503V). Briefly: PAN02 PTPN11 G503V syngeneic model (Example 10). It counts as in vivo, mouse. To be noted: PO daily. The protocol:
(§1) The combinatorial effects of Compound SOS1-(C) with cobimetinib on tumor cell growth in vivo were evaluated in the murine pancreatic ductal adenocarcinoma PAN02 PTPN11G503V syngeneic model using female C57BL/6J mice (6-7 weeks old). Mice were implanted with PAN02 tumor cells in PBS (5 ×10^6cells/mouse) subcutaneously in the flank. Once tumors reached an average size of ˜130 mm^3, mice were randomized to treatment groups to start the administration of test articles or control. All test articles were administered by oral gavage daily. Body weight and tumor volume (using calipers) was measured twice weekly until study endpoints.

For experiment [2], the system named is LN229.E76K tumors (PTPN11 E76K). Briefly: LN229.E76K glioblastoma xenograft (Example 8). It counts as in vivo, mouse. To be noted: PO daily; Compound SOS1-(C) 50 mg/kg, RMC-4550 30 mg/kg, cobimetinib […]. The protocol: 6-7 week athymic nude mice were implanted with LN229.E76K in 50% matirgel (10×10^6 cells/mouse) subcutaneously in the flank. Once tumors reached an average size of 200 mm^3, mice were randomized into treatment groups to start the administration of test articles or control. All treatments were administered daily by oral gavage. Body weight and tumor volume (using calipers) was measured twice weekly until study endpoint.

Experiment [3] deals with NCI-H358 KRASG12C xenograft. Briefly: In vivo NSCLC K-Ras G12C xenograft model. The conditions noted are these: single agent. Details: species or system BALB/c nude mice. As to the method:
Mice were implanted with NCI-H358 tumor cells in 50% Matrigel (5×10^6 cells/mouse) subcutaneously in the flank. At the indicated tumor volume (dotted line, FIG. 2A), mice were randomized to treatment groups to start the administration of test articles or vehicle. […] Body weight and tumor volume (using calipers) was measured twice weekly until study endpoints.
Mice were implanted with NCI-H358 tumor cells in 50% Matrigel (5×10^6 cells/mouse) subcutaneously in the flank. At indicated tumor volume (dotted line, FIG. 3A), mice were randomized to treatment groups to start the administration of test articles or vehicle. […] Cobimetinib was administered by daily oral gavage at 2.5 mg/kg. The combination of Compound B and cobimetinib at their respective single-agent dose and regimen was also tested. Body weight and tumor volume (using calipers) was measured twice weekly until study endpoints.
Mice were implanted with NCI-H358 tumor cells in 50% Matrigel (5×10^6 cells/mouse) subcutaneously in the flank. At indicated tumor volume (dotted line, FIG. 4A), mice were randomized to treatment groups to start the administration of test articles or vehicle. […] Body weight and tumor volume (using calipers) was measured twice weekly until study endpoints.

Experiment [4] concerns LN229.E76K tumors (PTPN11 E76K). Briefly: LN229.E76K glioblastoma xenograft (Example 11). In kind it is in vivo, mouse. The conditions noted are these: PO daily; Compound SOS1-(B) 50 mg/kg, cobimetinib 2.5, and combination. As to the method: as §1, with “SOS1-(B)” for “SOS1-(C)”, “a human engineered model of PTPN11-mutant glioblastoma, LN229.E76K xenograft” for “the murine pancreatic ductal adenocarcinoma PAN02 PTPN11G503V syngeneic”, “athymic nude” for “C57BL/6J”, “LN229.E76K” for “PAN02”, “50% Matrigel (10×10^6cells/mouse)” for “PBS (5 ×10^6cells/mouse)”, “˜200 mm3,” for “˜130 mm^3,”

For experiment [5], the system named is SW1573. The conditions noted are these: Canon et al. 2019; cited from earlier work.
Experiment [6] relates to SW1573. The conditions noted are these: cited from earlier work.
Experiment [7] has as its system SW1573 cells. To be noted: cited from earlier work.
Experiment [8] relates to PAN02 tumors (PTPN11 G503V). As to the kind of experiment: PAN02 PTPN11 G503V syngeneic model (Example 12). In kind it is in vivo, mouse. To be noted: PO daily; Compound SOS1-(C) 100 mg/kg for 7 days then 50 mg/kg, abemaciclib 30 mg/kg. The protocol:
as §1, with “Abemaciclib” for “cobimetinib”, “mm3,” for “mm^3,”

Experiment [9] deals with PAN02 cells (SHP2 G503V). Briefly: CellTiter-Glo viability in PAN02 cells. It counts as cell-based, mouse. To be noted: PAN02, up to highest test concentration of 10 μM. An excerpt: (§2) In this example, two mouse tumor cell lines, KLN205 (lung squamous cell carcinoma) and PAN02 (pancreatic cancer), were characterized.
(§3) See FIGS. 5A through 5D, which are graphs depicting the pERK AlphaLISA® assay.
A general note: Cellular ATP, detected with luciferase, serves as a proxy for viable cell number.

Experiment [10] has as its system KLN205 cells (SHP2 G503V). Briefly: pERK AlphaLISA in KLN205 cells. To be noted: KLN205, up to highest test concentration of 10 μM. In kind it is cell-based, mouse.
From the text: as §2, §3

Experiment [11] deals with KLN205 cells (SHP2 G503V). Briefly: CellTiter-Glo viability in KLN205 cells. The conditions noted are these: KLN205, up to highest test concentration of 10 μM. It counts as cell-based, mouse.
From the text: as §2, §3

The subject of experiment [12] is KLN205 tumors (SHP2 G503V). As to the kind of experiment: KLN205 syngeneic tumor model (Example 2). It counts as in vivo, mouse. The conditions noted are these: KLN205, DBA/2 mice; RMC-4550 30 mg/kg daily oral.
For experiment [13], the system named is PAN02 cells (SHP2 G503V). As to the kind of experiment: pERK AlphaLISA in PAN02 cells. In kind it is cell-based, mouse. To be noted: PAN02, up to highest test concentration of 10 μM.
From the text: as §2, §3

Experiment [14] concerns Capan-2 tumors (KRAS G12V/wt). Briefly: Capan-2 KRAS G12V/wt xenograft efficacy. In kind it is in vivo, mouse. To be noted: RMC-4550 20 mg/kg po every other day; Compound A 100 mg/kg po bid; Day 40. The protocol: Capan-2 cells were implanted in 50% Matrigel. Animals were randomized and treatment was initiated at average tumor volume of ˜180 mm3. […] Ns=no significance; *** p<0.001 by one-way ANOVA.
Once tumors reached an average size of ˜180 mm3, mice were randomized to treatment groups to start the administration of test articles or vehicle. […] Body weight and tumor volume (using calipers) was measured twice weekly until study endpoints.

Experiment [15] relates to SHP2 variants expressed in T-REx-293 (HEK-293) cells. Briefly: pERK AlphaLISA in isogenic T-REx-293-SHP2 cells, EGF stimulated. The conditions noted are these: SHP2 G503V. It counts as cell-based. As to the method: Assay data was plotted and EC50 values were determined using four-parameter concentration-response model in GraphPad Prism 7. Data provided are mean+/−standard deviation of duplicate values from representative experiments.

For experiment [16], the system named is PAN02 tumors (SHP2 G503V). Briefly: PAN02 syngeneic tumor model (Example 2). In kind it is in vivo, mouse. To be noted: PAN02, C57/B6 mice; RMC-4550 40 mg/kg every 2 days oral.

Structures are written as SMILES.

Take `O=C(c1ccc(F)c(F)c1Nc1ccc(I)cc1F)N1CC(O)([C@@H]2CCCCN2)C1` [cobimetinib]: the “tumor growth inhibition (TGI)” value in [1] (Compound SOS1-(C) 100 mg/kg, cobimetinib […]) turned out to be 38%; in experiment [1] (cobimetinib 5 mg/kg), 49%; in [2] it was 41%; in [4], 62%. Further, the tumor growth response entry in experiment [3] (A 100 mg/kg po daily 28 days, B 50 mg/kg iv twice weekly, cobimetinib […] po daily, C 60 mg/kg iv once weekly) is “tumor growth inhibition”. In addition, the “mice with tumor regression (of 10)” value in experiment [3] (regression = greater than 10% reduction of tumor volume, SHP2 inhibitor 30 mg/kg po daily) was “no tumor regressions”.
Turning to `C=CC(=O)N1CCN(c2nc(=O)n(-c3c(C)ccnc3C(C)C)c3nc(-c4c(O)cccc4F)c(F)cc23)[C@@H](C)C1` [AMG510, sotorasib], the “sensitivity of SW1573” value in [5] was “insensitive”. The “sensitivity of cell line” value in experiment [6] and in experiment [7] was “insensitive” each time.
On to `CCN1CCN(Cc2ccc(Nc3ncc(F)c(-c4cc(F)c5nc(C)n(C(C)C)c5c4)n3)nc2)CC1` [abemaciclib], for which the “tumor growth inhibition (TGI)” value in [8] is recorded as 52%.
In the case of `Cc1nc(N2CCC3(CC2)CO[C@@H](C)[C@H]3N)c(CO)nc1-c1cccc(Cl)c1Cl` [RMC-4550], the “inhibition of cell growth” value in experiment [9] and in [11] was “low or moderate inhibition” each time. The “inhibition of pERK” value in experiment [10] and in experiment [13] was “low or moderate inhibition” in each case. The tumor growth inhibition result in experiment [12] and in experiment [16] was “less than 50%” each time. Moreover, in experiment [2], the “tumor growth inhibition (TGI)” value came out at 7%. Moreover, the TGI (commonly how far tumour growth fell short of that in controls) in experiment [14] was 39%. Moreover, the IC50 – broadly, the midpoint of a concentration-inhibition curve – in experiment [15] was above 30 µM.
